Measured values: patent US11117885B2, “Compounds having estrogen receptor alpha degradation activity and uses thereof” (ACCUTAR BIOTECHNOLOGY INC., priority 2018, dated 2021)

Target: T1, ERα (Homo sapiens, UniProt P03372)
T1 sequence (P03372 1-595): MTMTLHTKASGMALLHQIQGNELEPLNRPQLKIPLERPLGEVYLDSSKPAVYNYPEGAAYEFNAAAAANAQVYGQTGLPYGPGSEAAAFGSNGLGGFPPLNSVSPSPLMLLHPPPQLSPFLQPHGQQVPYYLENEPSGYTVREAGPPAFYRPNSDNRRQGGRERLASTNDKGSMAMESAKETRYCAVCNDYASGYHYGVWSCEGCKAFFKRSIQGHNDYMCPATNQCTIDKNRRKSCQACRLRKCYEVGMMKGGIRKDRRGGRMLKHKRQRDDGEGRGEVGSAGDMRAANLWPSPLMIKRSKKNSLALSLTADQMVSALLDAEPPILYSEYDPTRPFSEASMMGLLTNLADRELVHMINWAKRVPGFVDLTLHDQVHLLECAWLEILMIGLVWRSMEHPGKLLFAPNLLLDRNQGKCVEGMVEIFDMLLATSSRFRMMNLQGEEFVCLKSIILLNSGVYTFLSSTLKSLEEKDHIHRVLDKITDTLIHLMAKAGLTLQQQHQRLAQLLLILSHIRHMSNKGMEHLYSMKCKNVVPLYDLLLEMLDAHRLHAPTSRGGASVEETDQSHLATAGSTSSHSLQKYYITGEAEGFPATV
Assay: ERα degradative activity in T47D cells (western blot, densitometry)
Format: cell-based
Parameters: endogenous in cells; host or cells: T47D
Conditions: T47D cell line; concentration at which 50% of the target protein (ERα) is degraded
Method: T47D cells were plated in 24-well plates at 1.5×10^5 cells/well in the RPMI growth medium containing 10% FBS and 1× Penicillin Streptomycin, and then incubated at 37° C. overnight. The following day, the test compound was administered to the cells by using 1000× compound stock solution prepared in DMSO at various concentrations. After administration of the compound, the cells were then incubated at 37 C for various period of treatment time, e.g., as indicated in the figures.
Upon completion, the cells were washed with PBS and protein was collected in Laemmli sample buffer (1×; VWR International). Protein was isolated from cell lysate (approximately 25 μg) by SDS-PAGE and transferred to nitrocellulose membranes. Non-specific binding was blocked by incubation with blocking buffer (5% milk in Tris-buffered saline with 0.1% Tween 20 (“TBS-T”)) at rt for 60 minutes.
The membrane was then incubated with primary antibodies (mouse anti-ERα (1:500, Santa Cruz), mouse anti-GAPDH (1:5,000, Santa Cruz), or mouse anti-actin (1:4,000, Santa Cruz)) overnight at 4° C., followed by washing (3 times) with TBS-T, and then incubation with horseradish peroxidase-conjugated rabbit anti-mouse IgG (1:5,000) for 60 minutes. After the TBS-T washes, blots were developed with an enhanced chemiluminescence kit (ThermoFisher Scientific) and the bands were imaged and quantified by densitometry (Bio-Rad).
The DC50 values (i.e., the concentration of test compound at which 50% of the target protein is degraded) was calculated for various compounds of the present disclosure and are shown in the Table 3, below. A corresponds to a DC50 value less than or equal to 1.5 μM; B corresponds to a DC50 value greater than 1.5 μM and less than 3 μM; and C corresponds to a DC50 value greater than 3 μM.

Row | Structure (SMILES) | DC50 [nM]
1 | CC/C(=C(\c1ccccc1)c1ccc(OCCN(C)C(=O)CCOCCOCCNc2cccc3c2C(=O)N(C2CCC(=O)NC2=O)C3=O)cc1)c1ccccc1 (stereo not shown) [Compound 15, (Z)-3-(2-(2-((2-(2,6-Dioxopiperidin-3-yl)-1,3-dioxoisoindolin-4-yl)amino)ethoxy)ethoxy)-N-(2-(4-(1,2-diphenylbut-1-en-1-yl)phenoxy)ethyl)-N-methylpropanamide] | > 3000
2 | CC/C(=C(\c1ccccc1)c1ccc(OCCN(C)C(=O)CCOCCOCCOCCOCCNc2cccc3c2C(=O)N(C2CCC(=O)NC2=O)C3=O)cc1)c1ccccc1 (stereo not shown) [Compound 54, (Z)-1-((2-(2,6-dioxopiperidin-3-yl)-1,3-dioxoisoindolin-4-yl)amino)-N-(2-(4-(1,2-diphenylbut-1-en-1-yl)phenoxy)ethyl)-N-methyl-3,6,9,12-tetraoxapentadecan-15-amide] | ≤ 1500
3 | CC/C(=C(\c1ccccc1)c1ccc(OCCN(C)C(=O)CCOCCOCCOCCOCCOCCNc2cccc3c2C(=O)N(C2CCC(=O)NC2=O)C3=O)cc1)c1ccccc1 (stereo not shown) [Compound 64, (Z)-1-((2-(2,6-dioxopiperidin-3-yl)-1,3-dioxoisoindolin-4-yl)amino)-N-(2-(4-(1,2-diphenylbut-1-en-1-yl)phenoxy)ethyl)-N-methyl-3,6,9,12,15-pentaoxaoctadecan-18-amide] | ≤ 1500
4 | CC/C(=C(\c1ccccc1)c1ccc(OCCN(C)C(=O)CCCCCNc2cccc3c2C(=O)N(C2CCC(=O)NC2=O)C3=O)cc1)c1ccccc1 (stereo not shown) [Compound 120, (Z)-6-((2-(2,6-dioxopiperidin-3-yl)-1,3-dioxoisoindolin-4-yl)amino)-N-(2-(4-(1,2-diphenylbut-1-en-1-yl)phenoxy)ethyl)-N-methylhexanamide] | ≤ 1500
5 | CC/C(=C(\c1ccccc1)c1ccc(OCCN(C)C(=O)CCCCCCNc2cccc3c2C(=O)N(C2CCC(=O)NC2=O)C3=O)cc1)c1ccccc1 (stereo not shown) [Compound 126, (Z)-7-((2-(2,6-dioxopiperidin-3-yl)-1,3-dioxoisoindolin-4-yl)amino)-N-(2-(4-(1,2-diphenylbut-1-en-1-yl)phenoxy)ethyl)-N-methylheptanamide] | 1500 to 3000

The remaining lines, values ahead:

Row | DC50 [nM] | Structure (SMILES)
6 | > 3000 | CC/C(=C(\c1ccccc1)c1ccc(OCCN(C)C(=O)CCOCCNc2cccc3c2C(=O)N(C2CCC(=O)NC2=O)C3=O)cc1)c1ccccc1 (stereo not shown) [Compound 8, (Z)-3-(2-((2-(2,6-dioxopiperidin-3-yl)-1,3-dioxoisoindolin-4-yl)amino)ethoxy)-N-(2-(4-(1,2-diphenylbut-1-en-1-yl)phenoxy)ethyl)-N-methylpropanamide]
7 | > 3000 | CC/C(=C(\c1ccccc1)c1ccc(OCCN(C)C(=O)CNc2cccc3c2C(=O)N(C2CCC(=O)NC2=O)C3=O)cc1)c1ccccc1 (stereo not shown) [Compound 88, (Z)-2-((2-(2,6-dioxopiperidin-3-yl)-1,3-dioxoisoindolin-4-yl)amino)-N-(2-(4-(1,2-diphenylbut-1-en-1-yl)phenoxy)ethyl)-N-methylacetamide]
8 | ≤ 1500 | CC/C(=C(\c1ccccc1)c1ccc(OCCN(C)C(=O)CCNc2cccc3c2C(=O)N(C2CCC(=O)NC2=O)C3=O)cc1)c1ccccc1 (stereo not shown) [Compound 89, (Z)-3-((2-(2,6-dioxopiperidin-3-yl)-1,3-dioxoisoindolin-4-yl)amino)-N-(2-(4-(1,2-diphenylbut-1-en-1-yl)phenoxy)ethyl)-N-methylpropanamide]
9 | ≤ 1500 | CC/C(=C(\c1ccccc1)c1ccc(OCCN(C)C(=O)CCCNc2cccc3c2C(=O)N(C2CCC(=O)NC2=O)C3=O)cc1)c1ccccc1 (stereo not shown) [Compound 108, (Z)-4-((2-(2,6-dioxopiperidin-3-yl)-1,3-dioxoisoindolin-4-yl)amino)-N-(2-(4-(1,2-diphenylbut-1-en-1-yl)phenoxy)ethyl)-N-methylbutanamide]
10 | 1500 to 3000 | CC/C(=C(\c1ccccc1)c1ccc(OCCN(C)C(=O)CCCCCCCNc2cccc3c2C(=O)N(C2CCC(=O)NC2=O)C3=O)cc1)c1ccccc1 (stereo not shown) [Compound 143, (Z)-8-((2-(2,6-dioxopiperidin-3-yl)-1,3-dioxoisoindolin-4-yl)amino)-N-(2-(4-(1,2-diphenylbut-1-en-1-yl)phenoxy)ethyl)-N-methyloctanamide]
